Numbers after ± are expanded uncertainties.
Test: cn = amount concentration of the nth substance listed, in mol/dm3
Settings: 100 kPa, Liquid

[I-].[NH4+] [ammonium iodide] + CO
Settings | mass density [kg/m3] | viscosity [mPa·s]
298.15 K, c1 = 0.1696 | 807.2 ± 1.1 | 0.597 ± 0.021
298.15 K, c1 = 0.3281 | 826.3 ± 1 | 0.628 ± 0.022
298.15 K, c1 = 0.4765 | 845.4 ± 1 | 0.674 ± 0.023
298.15 K, c1 = 0.5841 | 859.1 ± 0.9 | 0.692 ± 0.023
298.15 K, c1 = 0.5862 | 859.4 ± 0.9 | 0.688 ± 0.023
298.15 K, c1 = 0.7482 | 881.8 ± 0.8 | 0.737 ± 0.025
298.15 K, c1 = 0.8737 | 899.4 ± 0.8 | 0.771 ± 0.026
298.15 K, c1 = 0.9947 | 916.9 ± 0.7 | 0.802 ± 0.026
298.15 K, c1 = 1.105 | 933.34 ± 0.62 | 0.836 ± 0.027
298.15 K, c1 = 1.209 | 949.2 ± 0.6 | 0.865 ± 0.028
298.15 K, c1 = 1.334 | 968.4 ± 0.5 | 0.903 ± 0.029
298.15 K, c1 = 1.417 | 981.5 ± 0.4 | 0.93 ± 0.03
298.15 K, c1 = 1.507 | 996.2 ± 0.4 | 0.96 ± 0.031
303.15 K, c1 = 0.1686 | 802.6 ± 1.1 | 0.557 ± 0.02
303.15 K, c1 = 0.3262 | 821.6 ± 1.1 | 0.586 ± 0.02
303.15 K, c1 = 0.4739 | 840.8 ± 1 | 0.628 ± 0.022
303.15 K, c1 = 0.581 | 854.5 ± 0.9 | 0.648 ± 0.022
303.15 K, c1 = 0.7443 | 877.2 ± 0.8 | 0.688 ± 0.023
303.15 K, c1 = 0.8692 | 894.8 ± 0.8 | 0.719 ± 0.024
303.15 K, c1 = 0.9897 | 912.3 ± 0.7 | 0.749 ± 0.025
303.15 K, c1 = 1.099 | 928.8 ± 0.6 | 0.781 ± 0.026
303.15 K, c1 = 1.203 | 944.6 ± 0.6 | 0.809 ± 0.027
303.15 K, c1 = 1.327 | 963.8 ± 0.5 | 0.847 ± 0.028
303.15 K, c1 = 1.41 | 976.9 ± 0.5 | 0.868 ± 0.028
303.15 K, c1 = 1.5 | 991.6 ± 0.4 | 0.898 ± 0.029
308.15 K, c1 = 0.1676 | 797.9 ± 1.1 | 0.522 ± 0.019
308.15 K, c1 = 0.3018 | 813.9 ± 1.1 | 0.54 ± 0.019
308.15 K, c1 = 0.4712 | 836.1 ± 1 | 0.587 ± 0.02
308.15 K, c1 = 0.5799 | 850.1 ± 0.9 | 0.6 ± 0.021
308.15 K, c1 = 0.7404 | 872.6 ± 0.9 | 0.644 ± 0.022
308.15 K, c1 = 0.8647 | 890.2 ± 0.8 | 0.682 ± 0.023
308.15 K, c1 = 0.9847 | 907.6 ± 0.7 | 0.701 ± 0.024
308.15 K, c1 = 1.094 | 924.3 ± 0.7 | 0.729 ± 0.024
308.15 K, c1 = 1.197 | 940 ± 0.6 | 0.756 ± 0.025
308.15 K, c1 = 1.321 | 959.2 ± 0.5 | 0.789 ± 0.026
308.15 K, c1 = 1.403 | 972.3 ± 0.5 | 0.813 ± 0.027
308.15 K, c1 = 1.493 | 987 ± 0.4 | 0.84 ± 0.028
313.15 K, c1 = 0.1667 | 793.1 ± 1.2 | 0.49 ± 0.018
313.15 K, c1 = 0.3001 | 809.2 ± 1.1 | 0.506 ± 0.018
313.15 K, c1 = 0.4686 | 831.4 ± 1 | 0.551 ± 0.019
313.15 K, c1 = 0.5767 | 845.4 ± 1 | 0.563 ± 0.02
313.15 K, c1 = 0.7364 | 867.9 ± 0.9 | 0.604 ± 0.021
313.15 K, c1 = 0.8602 | 885.5 ± 0.8 | 0.631 ± 0.022
313.15 K, c1 = 0.9797 | 903 ± 0.7 | 0.658 ± 0.022
313.15 K, c1 = 1.089 | 920 ± 0.7 | 0.685 ± 0.023
313.15 K, c1 = 1.191 | 935.4 ± 0.6 | 0.71 ± 0.024
313.15 K, c1 = 1.315 | 954.6 ± 0.7 | 0.741 ± 0.025
313.15 K, c1 = 1.397 | 967.7 ± 0.6 | 0.763 ± 0.025
313.15 K, c1 = 1.486 | 982.4 ± 0.4 | 0.788 ± 0.026
